Literature values, collected in patent US7157444B2, “Aminosalicylate derivatives for treatment of inflammatory bowel disease” (priority 2002, dated 2007).

Settings: oral, 40 mL of a suspension of 1 g of ASA in water, fasted healthy subjects

Nc1ccc(O)c(C(=O)O)c1 [ASA, 5-aminosalicylic acid]
maximum plasma concentration: 14.7 µg/mL | time of maximum plasma concentration post-dose: Within an hour post-dose

CC(=O)Nc1ccc(O)c(C(=O)O)c1 [N-acetyl-ASA]
maximum plasma concentration: 11.4 µg/mL | time of maximum plasma concentration post-dose: Within an hour post-dose
